Results reported in patent US20080009025A1, “PROTEIN KINASE REGULATION” (priority 1999, published 2008).
Where a SMILES comes first, the peptide text is derived from it.

Assays:
Test in all cases: Surface plasmon resonance binding of PDK1 to PIF / immobilised PIFtide
[1] = system: PDK1; design: species or system human
Source text: (§1) It is preferred that the interaction can be detected using a surface plasmon resonance method, as described in Example 1 or 2 and in Balendran et al (1999), supra and GB9906245.7, supra. The interacting polypeptide may be immobilised on the test surface, for example it can be coupled through amino groups to a SensorChip CM5™, according to the manufacturer's instructions, or a biotinylated polypeptide can be bound to an avidin coated SensorChip SA. The protein kinase (at concentrations between, for example 0 and […], for example 2 μM) is then injected over the surface and steady state binding determined in each case. From these measurements a Kd can be determined. […] Alternatively, a Kd can be determined for a polypeptide in competition with the immobilised polypeptide. The protein kinase (for example at a concentration of 0.5 μM) is mixed with free polypeptide (for example, at concentrations between 0 and 3 μM) and the mixture injected over the immobilised polypeptides. The steady state binding is determined in each case, from which the Kd of the interaction can be determined using the […] relationship. Alternatively, the interaction may be expressed in terms of an observed response or relative observed responses, measured in terms of mass of protein bound to the surface, as described in Example 2. For example, the polypeptide may be immobilised by amino coupling to a SensorChip CM5 and each protein kinase (for example different mutated protein kinases, as discussed below) for example at a concentration of 1.0 μM, injected over the immobilised polypeptide. Alternatively, the polypeptide may be immobilised on a SA SensorChip and each protein kinase, for example at a concentration of 40 nM injected over the immobilised polypeptide. The steady state response for each protein kinase is determined, for example expressed in Response Units (RU). 1000 RU corresponds to 1 ng/mm^2 of protein bound to the surface. A response of less than 10 RU may indicate that no interaction has taken place. A response of at least 10 RU may indicate that the immobilised and injected molecules interact with each other.
(§2) FIG. 9. Effect of mutation of conserved residues in the PIF-binding pocket of PDK1 on the ability to interact with PIF. 293 cells were transiently transfected with DNA constructs expressing GST-PIF and either wild type Myc-PDK1 or the indicated mutants of PDK1. 36 h post transfection the cells were lysed and GST-PIF purified by affinity chromatography on glutathione-Sepharose beads. 2 μg of each protein was electrophoresed on a 10% SDS/polyacrylamide gel and either stained with Coomassie blue (A and E) or immunoblotted using an anti Myc antibody to detect Myc-PDK1 (B and F). To establish that the wild type PDK1 and mutant proteins were expressed at a similar level, 10 μg of total cell lysate was electrophoresed on a 10% SDS/polyacrylamide gel and immunoblotted using anti-Myc antibodies (C and G). Duplicates of each condition are shown. Similar results were obtained in 3 to 5 separate experiments. (D) Surface Plasmon Resonance measurements were carried out in a BiaCore instrument as described in the Methods to measure the interaction of wild type and mutant GST-PDK1 preparations with the 24 residue synthetic peptide whose sequence encompasses the PDK1 binding site on PIF termed PIFtide [24: Example 2]. […]
(§3) Binding was analysed directly by surface plasmon resonance in an upgraded Bia-Lite™ system. […]

[2] = biological target: T1, PDK1 (Homo sapiens, UniProt O15530, K115A); conditions: immobilised biotinylated peptide; PDK1 K115A
T1 construct: Full length PDK1 (residues 1-556); made in house; host or cells: 293 cells
T1 sequence (O15530 1-556 K115A): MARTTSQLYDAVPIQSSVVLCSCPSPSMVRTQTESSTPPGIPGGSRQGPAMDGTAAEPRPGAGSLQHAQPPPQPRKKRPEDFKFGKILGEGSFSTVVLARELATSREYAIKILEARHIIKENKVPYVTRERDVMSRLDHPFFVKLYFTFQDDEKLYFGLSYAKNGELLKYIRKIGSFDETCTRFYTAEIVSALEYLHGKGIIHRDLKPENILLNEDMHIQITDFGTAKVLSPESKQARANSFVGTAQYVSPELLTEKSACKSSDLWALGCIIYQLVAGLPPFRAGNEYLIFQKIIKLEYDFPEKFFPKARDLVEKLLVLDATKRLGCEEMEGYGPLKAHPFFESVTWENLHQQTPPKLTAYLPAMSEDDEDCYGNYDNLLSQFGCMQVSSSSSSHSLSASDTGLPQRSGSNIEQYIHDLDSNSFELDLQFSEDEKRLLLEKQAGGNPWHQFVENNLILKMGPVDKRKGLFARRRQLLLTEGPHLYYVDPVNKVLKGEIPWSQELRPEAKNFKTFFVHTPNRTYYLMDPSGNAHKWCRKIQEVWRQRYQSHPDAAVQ
Source text: as §1, §2, §3

[3] = biological target: T2, PDK1 (Homo sapiens, UniProt O15530); conditions: His-tagged PDK1
T2 construct: Full length PDK1 (residues 1-556); made in house; host or cells: 293 cells
T2 sequence (O15530 52-556): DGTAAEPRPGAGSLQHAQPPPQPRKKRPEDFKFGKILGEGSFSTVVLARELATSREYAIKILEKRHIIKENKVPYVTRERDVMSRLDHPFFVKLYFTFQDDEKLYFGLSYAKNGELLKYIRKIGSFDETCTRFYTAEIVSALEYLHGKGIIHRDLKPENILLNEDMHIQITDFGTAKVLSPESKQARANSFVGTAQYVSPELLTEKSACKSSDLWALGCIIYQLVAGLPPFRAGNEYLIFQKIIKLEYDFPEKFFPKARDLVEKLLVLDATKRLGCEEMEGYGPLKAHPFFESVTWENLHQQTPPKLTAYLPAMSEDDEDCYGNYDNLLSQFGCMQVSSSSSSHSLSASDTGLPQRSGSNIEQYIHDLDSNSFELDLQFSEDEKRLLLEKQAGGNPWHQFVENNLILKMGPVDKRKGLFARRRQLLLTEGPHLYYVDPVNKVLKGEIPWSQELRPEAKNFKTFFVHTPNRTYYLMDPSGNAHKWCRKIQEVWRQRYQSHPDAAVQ
Source text: as §1, §2, §3

Molecule | decreased affinity of PDK1[K115A], PDK1[I119A], PDK1[Q150A] and PDK1[L155A] for PIFtide ([1]; PDK1 PIF pocket mutants vs wild type, unpublished data) [fold] | interaction with L155S, L155D and L155E mutants of PDK1 ([1]; immobilised biotinylated peptide, PDK1 mutants L155S, L155D, L155E) | interaction with wild type GST-PDK1 ([1]; immobilised biotinylated peptide, wild type GST-PDK1) | interaction with K115A mutant of PDK1 [2] | estimated equilibrium dissociation constant of the association between GST-PIF and His-tagged PDK1 [3] [nM]
CC[C@H](C)[C@H](NC(=O)[C@H](Cc1ccc(O)cc1)NC(=O)[C@H](CC(=O)O)NC(=O)[C@H](Cc1ccccc1)NC(=O)[C@H](CC(=O)O)NC(=O)[C@H](CCCNC(=N)N)NC(=O)[C@H](Cc1ccccc1)NC(=O)[C@H](CCSC)NC(=O)[C@H](CCC(=O)O)NC(=O)[C@H](CCC(N)=O)NC(=O)[C@H](CCC(=O)O)NC(=O)[C@H](CCC(=O)O)NC(=O)[C@H](CCC(=O)O)NC(=O)[C@H](CO)NC(=O)[C@H](CC(C)C)NC(=O)[C@@H](NC(=O)[C@H](CCCNC(=N)N)NC(=O)[C@@H]1CCCN1C(=O)[C@H](CCC(=O)O)NC(=O)[C@@H](N)CCCNC(=N)N)[C@@H](C)CC)C(=O)N[C@@H](C)C(=O)N[C@@H](CC(=O)O)C(=O)N[C@@H](Cc1c[nH]c2ccccc12)C(=O)N[C@@H](CS)C(=O)O [PIFtide] (H-REPRILSEEEQEMFRDFDYIADWC-OH; N-terminus and C-terminus assumed) | ~10 | no detectable affinity | high affinity interaction | interacted weakly | –
GST-PIF: glutathione S-transferase fused to the last 77 residues of PRK2 (PIF) | – | – | – | – | 600
